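Results reflect a 48-hour exposure of cells in 96-well plates to compound at five concentrations. TGI: concentration producing complete growth inhibition.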
Tests used:
Test in all cases: inhibition of tumour cell growth, NCI panel, 48 h
786-0 renal = test system: 786-0 renal
A498 renal = test system: A498 renal
A549 NSCLC = test system: A549 NSCLC
ACHN renal = test system: ACHN renal
BT-549 breast = test system: BT-549 breast
CAKI-1 renal = test system: CAKI-1 renal
COLO 205 colon = test system: COLO 205 colon
DU-145 prostate = test system: DU-145 prostate
EKVX NSCLC = test system: EKVX NSCLC
HCC-2998 colon = test system: HCC-2998 colon
HCT-116 colon = test system: HCT-116 colon
HCT-15 colon = test system: HCT-15 colon
HOP-62 NSCLC = test system: HOP-62 NSCLC
HOP-92 NSCLC = test system: HOP-92 NSCLC
HS 578T breast = test system: HS 578T breast
IGROV1 ovarian = test system: IGROV1 ovarian
K-562 leukemia = test system: K-562 leukemia
KM12 colon = test system: KM12 colon
LOX IMVI melanoma = test system: LOX IMVI melanoma
M14 melanoma = test system: M14 melanoma
MALME-3M melanoma = test system: MALME-3M melanoma
MCF7 breast = test system: MCF7 breast
MDA-MB-231 breast = test system: MDA-MB-231 breast
MDA-MB-435 = test system: MDA-MB-435
MDA-N = test system: MDA-N
MOLT-4 leukemia = test system: MOLT-4 leukemia
NCI-H23 lung = test system: NCI-H23 lung
NCI-H460 lung = test system: NCI-H460 lung
NCI-H522 lung = test system: NCI-H522 lung
NCI/ADR-RES ovarian = test system: NCI/ADR-RES ovarian
OVCAR-3 ovarian = test system: OVCAR-3 ovarian
OVCAR-4 ovarian = test system: OVCAR-4 ovarian
OVCAR-5 ovarian = test system: OVCAR-5 ovarian
OVCAR-8 ovarian = test system: OVCAR-8 ovarian
PC-3 prostate = test system: PC-3 prostate
RPMI-8226 leukemia = test system: RPMI-8226 leukemia
SF-268 CNS = test system: SF-268 CNS
SF-295 CNS = test system: SF-295 CNS
SK-MEL-2 melanoma = test system: SK-MEL-2 melanoma
SK-MEL-28 melanoma = test system: SK-MEL-28 melanoma
SK-MEL-5 melanoma = test system: SK-MEL-5 melanoma
SK-OV-3 ovarian = test system: SK-OV-3 ovarian
SN12C renal = test system: SN12C renal
SNB-19 CNS = test system: SNB-19 CNS
SNB-75 CNS = test system: SNB-75 CNS
SR leukemia = test system: SR leukemia
SW-620 colon = test system: SW-620 colon
T-47D breast = test system: T-47D breast
TK-10 renal = test system: TK-10 renal
U251 CNS = test system: U251 CNS
UACC-257 melanoma = test system: UACC-257 melanoma
UACC-62 melanoma = test system: UACC-62 melanoma
UO-31 renal = test system: UO-31 renal
CCRF-CEM leukemia = test system: CCRF-CEM leukemia
HT29 colon = test system: HT29 colon
NCI-H226 lung = test system: NCI-H226 lung
SF-539 CNS = test system: SF-539 CNS

In the case of `O=C(Nc1ccc(Cl)cc1)/C(=C(/[O-])c1ccc(Br)cc1)[n+]1cccc(-c2ccc(Cl)cc2)n1`, the TGI (786-0 renal) was 14.3 µM, the TGI (A498 renal) was over 100 µM and the TGI (A549 NSCLC) was over 100 µM. It also gave a TGI (ACHN renal) of 46.1 µM, a TGI (BT-549 breast) of 9.35 µM and a TGI (CAKI-1 renal) of 6.66 µM. It also gave a TGI (COLO 205 colon) of over 100 µM, a TGI (DU-145 prostate) of over 100 µM and a TGI (EKVX NSCLC) of 19.3 µM. It also gave a TGI (HCC-2998 colon) of 24 µM, a TGI (HCT-116 colon) of 13 µM and a TGI (HCT-15 colon) of 51.7 µM. The TGI (HOP-62 NSCLC) was 29.2 µM, the TGI (HOP-92 NSCLC) was over 100 µM and the TGI (HS 578T breast) was 9.65 µM. The TGI (IGROV1 ovarian) was 14.8 µM, the TGI (K-562 leukemia) was over 100 µM and the TGI (KM12 colon) was 9.86 µM. For the same compound, the TGI (LOX IMVI melanoma) was over 100 µM, the TGI (M14 melanoma) was 18.5 µM and the TGI (MALME-3M melanoma) was 11.3 µM. The TGI (MCF7 breast) was 3.28 µM, the TGI (MDA-MB-231 breast) was over 100 µM and the TGI (MDA-MB-435) was 25 µM. For the same compound, the TGI (MDA-N) was over 100 µM, the TGI (MOLT-4 leukemia) was over 100 µM and the TGI (NCI-H23 lung) was 9.04 µM. The TGI (NCI-H460 lung) was 16.5 µM, the TGI (NCI-H522 lung) was 6.83 µM and the TGI (NCI/ADR-RES ovarian) was 31.6 µM. It also gave a TGI (OVCAR-3 ovarian) of 12.9 µM, a TGI (OVCAR-4 ovarian) of 29.4 µM and a TGI (OVCAR-5 ovarian) of 21.7 µM. The TGI (OVCAR-8 ovarian) was 14.2 µM, the TGI (PC-3 prostate) was over 100 µM and the TGI (RPMI-8226 leukemia) was over 100 µM. It also gave a TGI (SF-268 CNS) of 19.5 µM, a TGI (SF-295 CNS) of 11.2 µM and a TGI (SK-MEL-2 melanoma) of 12.3 µM. It also gave a TGI (SK-MEL-28 melanoma) of 71.1 µM, a TGI (SK-MEL-5 melanoma) of over 100 µM and a TGI (SK-OV-3 ovarian) of 33.7 µM. It also gave a TGI (SN12C renal) of 8.44 µM, a TGI (SNB-19 CNS) of over 100 µM and a TGI (SNB-75 CNS) of 26.1 µM. It also gave a TGI (SR leukemia) of over 100 µM, a TGI (SW-620 colon) of over 100 µM and a TGI (T-47D breast) of 5.14 µM. It also gave a TGI (TK-10 renal) of 67.8 µM, a TGI (U251 CNS) of over 100 µM and a TGI (UACC-257 melanoma) of over 100 µM. It also gave a TGI (UACC-62 melanoma) of 22.8 µM and a TGI (UO-31 renal) of 42.6 µM.
`COc1ccc(-n2cnc3c(NCC(=O)O)ncnc32)cc1` was tested, and the TGI (786-0 renal) was over 100 µM, the TGI (A498 renal) was over 100 µM and the TGI (A549 NSCLC) was over 100 µM. The TGI (ACHN renal) was over 100 µM, the TGI (BT-549 breast) was over 100 µM and the TGI (CAKI-1 renal) was over 100 µM. For the same compound, the TGI (CCRF-CEM leukemia) was over 100 µM, the TGI (COLO 205 colon) was over 100 µM and the TGI (DU-145 prostate) was over 100 µM. The TGI (EKVX NSCLC) was over 100 µM, the TGI (HCC-2998 colon) was over 100 µM and the TGI (HCT-116 colon) was over 100 µM. It also gave a TGI (HCT-15 colon) of over 100 µM, a TGI (HOP-62 NSCLC) of over 100 µM and a TGI (HOP-92 NSCLC) of over 100 µM. For the same compound, the TGI (HS 578T breast) was over 100 µM, the TGI (HT29 colon) was over 100 µM and the TGI (IGROV1 ovarian) was over 100 µM. The TGI (K-562 leukemia) was over 100 µM, the TGI (KM12 colon) was over 100 µM and the TGI (LOX IMVI melanoma) was over 100 µM. For the same compound, the TGI (M14 melanoma) was over 100 µM, the TGI (MALME-3M melanoma) was over 100 µM and the TGI (MCF7 breast) was over 100 µM. For the same compound, the TGI (MDA-MB-231 breast) was over 100 µM, the TGI (MDA-MB-435) was over 100 µM and the TGI (MDA-N) was over 100 µM. For the same compound, the TGI (MOLT-4 leukemia) was over 100 µM, the TGI (NCI-H226 lung) was over 100 µM and the TGI (NCI-H23 lung) was over 100 µM. For the same compound, the TGI (NCI-H460 lung) was over 100 µM, the TGI (NCI-H522 lung) was over 100 µM and the TGI (NCI/ADR-RES ovarian) was over 100 µM. It also gave a TGI (OVCAR-3 ovarian) of over 100 µM, a TGI (OVCAR-4 ovarian) of over 100 µM and a TGI (OVCAR-5 ovarian) of over 100 µM. For the same compound, the TGI (OVCAR-8 ovarian) was over 100 µM, the TGI (PC-3 prostate) was over 100 µM and the TGI (RPMI-8226 leukemia) was over 100 µM. The TGI (SF-268 CNS) was over 100 µM, the TGI (SF-295 CNS) was over 100 µM and the TGI (SK-MEL-2 melanoma) was over 100 µM. The TGI (SK-MEL-28 melanoma) was over 100 µM, the TGI (SK-MEL-5 melanoma) was over 100 µM and the TGI (SK-OV-3 ovarian) was over 100 µM. It also gave a TGI (SN12C renal) of over 100 µM, a TGI (SNB-19 CNS) of over 100 µM and a TGI (SNB-75 CNS) of over 100 µM. It also gave a TGI (SR leukemia) of over 100 µM, a TGI (SW-620 colon) of over 100 µM and a TGI (T-47D breast) of over 100 µM. The TGI (TK-10 renal) was over 100 µM, the TGI (U251 CNS) was over 100 µM and the TGI (UACC-257 melanoma) was over 100 µM. For the same compound, the TGI (UACC-62 melanoma) was over 100 µM and the TGI (UO-31 renal) was over 100 µM.
Work on `OC(Cc1ccc2ccccc2n1)(C(F)(F)F)C(F)(F)F` yielded a TGI (786-0 renal) of over 10 µM, a TGI (A498 renal) of over 10 µM and a TGI (A549 NSCLC) of over 10 µM. It also gave a TGI (ACHN renal) of over 10 µM, a TGI (BT-549 breast) of over 10 µM and a TGI (CAKI-1 renal) of over 10 µM. It also gave a TGI (CCRF-CEM leukemia) of over 10 µM, a TGI (COLO 205 colon) of over 10 µM and a TGI (DU-145 prostate) of over 10 µM. The TGI (EKVX NSCLC) was over 10 µM, the TGI (HCC-2998 colon) was over 10 µM and the TGI (HCT-116 colon) was over 10 µM. For the same compound, the TGI (HCT-15 colon) was over 10 µM, the TGI (HOP-62 NSCLC) was over 10 µM and the TGI (HOP-92 NSCLC) was over 10 µM. The TGI (HS 578T breast) was over 10 µM, the TGI (HT29 colon) was over 10 µM and the TGI (IGROV1 ovarian) was over 10 µM. For the same compound, the TGI (K-562 leukemia) was over 10 µM, the TGI (KM12 colon) was over 10 µM and the TGI (LOX IMVI melanoma) was over 10 µM. It also gave a TGI (M14 melanoma) of over 10 µM, a TGI (MALME-3M melanoma) of over 10 µM and a TGI (MCF7 breast) of over 10 µM. It also gave a TGI (MDA-MB-231 breast) of over 10 µM, a TGI (MDA-MB-435) of over 10 µM and a TGI (MDA-N) of over 10 µM. It also gave a TGI (MOLT-4 leukemia) of over 10 µM, a TGI (NCI-H23 lung) of over 10 µM and a TGI (NCI-H460 lung) of over 10 µM. It also gave a TGI (NCI-H522 lung) of over 10 µM, a TGI (NCI/ADR-RES ovarian) of over 10 µM and a TGI (OVCAR-3 ovarian) of over 10 µM. It also gave a TGI (OVCAR-4 ovarian) of over 10 µM, a TGI (OVCAR-5 ovarian) of over 10 µM and a TGI (OVCAR-8 ovarian) of over 10 µM. For the same compound, the TGI (PC-3 prostate) was over 10 µM, the TGI (RPMI-8226 leukemia) was over 10 µM and the TGI (SF-268 CNS) was over 10 µM. The TGI (SF-295 CNS) was over 10 µM, the TGI (SF-539 CNS) was over 10 µM and the TGI (SK-MEL-28 melanoma) was over 10 µM. It also gave a TGI (SK-MEL-5 melanoma) of over 10 µM, a TGI (SK-OV-3 ovarian) of over 10 µM and a TGI (SN12C renal) of over 10 µM. For the same compound, the TGI (SNB-19 CNS) was over 10 µM, the TGI (SNB-75 CNS) was over 10 µM and the TGI (SR leukemia) was over 10 µM. For the same compound, the TGI (SW-620 colon) was over 10 µM, the TGI (T-47D breast) was over 10 µM and the TGI (TK-10 renal) was over 10 µM. It also gave a TGI (U251 CNS) of over 10 µM, a TGI (UACC-257 melanoma) of over 10 µM and a TGI (UACC-62 melanoma) of over 10 µM. For the same compound, the TGI (UO-31 renal) was over 10 µM.

Reference: PubChem BioAssay (NCI)
